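Dose response: 5 concentrations. Exposure: 48 h. Format: 96-well plates. Endpoint: linear interpolation; highest concentration if not reached. GI50 is the concentration that inhibits growth by half.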 Active and inactive are the calls of the source. Cut-off read from the data, not from the text of the source: active = GI50 up to about 1.1 µM and inactive = higher.
Assays:
Assay in all cases: NCI tumour cell line growth inhibition, 48 h
[1] = system: K562
[2] = system: NCI-H522
[3] = system: NCI-H23
[4] = system: CAKI-1
[5] = system: OVCAR-5
[6] = system: KM-20L2
[7] = system: IGROV-1
[8] = system: HT-29
[9] = system: OVCAR-4
[10] = system: UACC-62
[11] = system: SNB-19
[12] = system: ACHN
[13] = system: HCT-116
[14] = system: U-251
[15] = system: NCI-H460
[16] = system: UO-31
[17] = system: NCI/ADR-RES
[18] = system: DU-145
[19] = system: T47D
[20] = system: MDA-MB-435

Measured: GI50

O=C(N/N=C/c1cc(-c2ccccc2Cl)c(-c2ccccc2Cl)o1)c1ccncc1
inactive: [1] > 10 µM | [2] 83.6 µM | [3] > 100 µM | [4] > 100 µM | [5] > 100 µM | [6] > 100 µM | [7] > 100 µM | [8] 80.5 µM | [9] > 100 µM | [10] > 100 µM | [11] > 100 µM | [12] > 100 µM | [13] > 100 µM

CC(C)(C)c1cc2ccc(C(N)=O)cc2c(=O)[nH]1
inactive: [14] 51.3 µM | [1] > 100 µM | [2] > 100 µM | [3] > 100 µM | [4] 80.2 µM | [15] > 100 µM | [5] > 100 µM | [6] > 100 µM | [7] > 100 µM | [8] > 100 µM | [9] > 100 µM | [10] > 100 µM | [11] > 100 µM | [12] > 100 µM | [13] 69.7 µM | [16] 63.8 µM

COc1c(C(C)C)cc2c3c1OC(=O)[C@@]31CCCC(C)(C)C1CC2 (stereo not given in full)
inactive: [14] 20 µM | [1] 20.4 µM | [2] 9.18 µM | [3] 20 µM | [4] > 100 µM | [15] 40.7 µM | [5] 52.4 µM | [6] 30.4 µM | [7] 23.1 µM | [8] 25.5 µM | [10] 24.4 µM | [11] 5.78 µM | [12] 52.5 µM | [13] 9.2 µM | [16] 11.7 µM

CC(=O)Nc1ccc(C2CC(c3ccc([N+](=O)[O-])cc3)=Nc3ccccc3[S+]2[O-])cc1 (stereo not given)
inactive: [1] 4.58 µM | [2] 17.3 µM | [3] 21.5 µM | [4] > 10 µM | [15] 23.3 µM | [5] 50.6 µM | [6] 21.6 µM | [7] 12.7 µM | [8] 22.6 µM | [9] 18.9 µM | [10] 11.6 µM | [11] 36.8 µM | [12] 20.6 µM | [16] 16.7 µM

CCC1(C)NN=c2s/c(=C/c3ccc(OC)cc3)c(=O)n2N1 (stereo not given)
inactive: [14] > 100 µM | [1] > 100 µM | [2] > 100 µM | [3] > 100 µM | [4] > 100 µM | [15] > 100 µM | [5] > 100 µM | [6] > 100 µM | [7] > 100 µM | [8] > 100 µM | [9] 35.7 µM | [10] > 100 µM | [11] > 100 µM | [12] > 100 µM | [13] > 100 µM | [16] > 100 µM

COc1ccc(S(=O)(=O)NC(C)C(=O)O)cc1 (stereo not given)
inactive: [14] > 100 µM | [1] > 100 µM | [2] > 100 µM | [3] > 100 µM | [4] > 100 µM | [15] > 100 µM | [5] > 100 µM | [6] > 100 µM | [7] > 100 µM | [8] > 100 µM | [9] > 100 µM | [10] > 100 µM | [11] > 100 µM | [12] > 100 µM | [16] > 100 µM

C[C@]12CCC3[C@@H](CCC45OC4C(=O)CC[C@]35C)C1Cc1cnn(-c3ccc(F)cc3)c1N2 (stereo not given in full)
inactive: [14] 28.4 µM | [1] 20.9 µM | [2] 15 µM | [3] 22.2 µM | [15] 28.6 µM | [6] 22.6 µM | [8] 17.3 µM | [9] > 10 µM | [10] 19.7 µM | [11] 27.2 µM | [12] 33.6 µM | [13] 15.3 µM | [16] 87.9 µM

O=c1c2cccc3cccc(c4n1CCN=4)c32
inactive: [14] > 100 µM | [1] > 100 µM | [2] 84.3 µM | [3] > 100 µM | [4] 63.4 µM | [15] 61.1 µM | [5] > 100 µM | [6] > 100 µM | [7] 82.6 µM | [8] > 100 µM | [9] 40.8 µM | [10] 84.5 µM | [12] 56 µM | [13] 57.8 µM | [16] 41 µM

COC(=O)/C(Cl)=C1/CC1COCc1ccccc1 (stereo not given)
inactive: [1] 17.9 µM | [2] 20.3 µM | [3] 31.5 µM | [4] 22.6 µM | [15] 43.4 µM | [5] 74.3 µM | [6] 41.4 µM | [7] 44.9 µM | [8] 25 µM | [9] 31 µM | [10] 23.9 µM | [11] 78.9 µM | [12] 25.4 µM | [16] 28.8 µM

CCOc1ccc2c(c1)[n+]([O-])c(-c1ccccc1)c(N)[n+]2[O-]
inactive: [14] 47.6 µM | [1] 45 µM | [2] 16.8 µM | [3] 29.9 µM | [4] 35.6 µM | [15] 51.6 µM | [5] > 100 µM | [6] 59 µM | [7] 82.6 µM | [8] > 100 µM | [9] > 100 µM | [10] 30.5 µM | [11] > 100 µM | [12] 55.1 µM | [16] 96.4 µM

CCCCCCCCCCCCN(O)C(=O)c1ccccc1
inactive: [14] 11.8 µM | [1] 18.9 µM | [2] 25.6 µM | [3] 14.9 µM | [15] > 10 µM | [5] 21.5 µM | [6] 36.2 µM | [7] 37.8 µM | [8] 39.4 µM | [10] 19.7 µM | [11] 42.6 µM | [12] 28.2 µM | [13] 42 µM | [16] 24.3 µM

Clc1ccc(C2=NN(c3ccccc3)C3c4cc(Br)ccc4OCC23)cc1 (stereo not given)
inactive: [14] 67.3 µM | [1] 33.8 µM | [2] > 100 µM | [3] 86.9 µM | [15] > 100 µM | [5] > 100 µM | [6] > 100 µM | [7] > 100 µM | [8] 66.7 µM | [11] > 100 µM | [12] > 100 µM | [13] 18.6 µM | [16] > 100 µM

CCC12CCCC(=O)N1C(CO)C(c1ccccc1)O2 (stereo not given)
inactive: [14] > 100 µM | [1] > 100 µM | [3] > 100 µM | [4] > 100 µM | [15] > 100 µM | [5] > 100 µM | [6] > 100 µM | [7] > 100 µM | [8] > 100 µM | [9] > 100 µM | [10] > 100 µM | [11] > 100 µM | [12] > 100 µM | [13] > 100 µM

O=C(/C=C/c1ccsc1)c1ccco1
inactive: [14] 7.67 µM | [1] 4.71 µM | [2] 1.76 µM | [3] 14.2 µM | [4] 6.85 µM | [15] 14.3 µM | [5] 17.1 µM | [7] 10.4 µM | [8] 9.95 µM | [9] 5.24 µM | [10] 14.6 µM | [11] 15.5 µM | [12] 10.8 µM | [17] 16.6 µM | [18] 13.6 µM | [19] 11.8 µM | [13] 5.97 µM | [20] 20 µM | [16] 8.87 µM

N#CC(N)(C(=O)CCC(=O)Nc1cccc(Cl)c1)c1ccc(Cl)cc1 (stereo not given)
inactive: [14] > 100 µM | [1] > 100 µM | [2] > 100 µM | [3] > 100 µM | [4] > 100 µM | [15] > 100 µM | [6] > 100 µM | [7] > 100 µM | [8] > 100 µM | [9] > 100 µM | [10] > 100 µM | [11] > 100 µM | [12] > 100 µM | [13] > 100 µM | [16] > 100 µM

CCOP(=O)(OCC)C1CC(C)OC1=O (stereo not given)
inactive: [14] > 100 µM | [1] > 100 µM | [3] > 100 µM | [4] > 100 µM | [15] > 100 µM | [5] > 100 µM | [6] > 100 µM | [7] > 100 µM | [8] > 100 µM | [9] > 100 µM | [10] > 100 µM | [11] > 100 µM | [12] > 100 µM | [13] > 100 µM | [16] > 100 µM

COc1ccc(CC2=NCCc3cc(OC)c(OC)cc32)cc1Br
inactive: [14] 18.1 µM | [1] 3.66 µM | [2] 12 µM | [3] 8.69 µM | [4] 12.1 µM | [15] 6.19 µM | [5] 1.99 µM | [6] 4.11 µM | [7] > 10 µM | [8] 3.18 µM | [9] 15.2 µM | [10] 6.67 µM | [11] 12.7 µM | [12] 12.9 µM | [16] 16.8 µM

CC(C)(CO)CNc1nc(N)nc(Cl)c1N
inactive: [14] > 100 µM | [1] > 100 µM | [2] > 100 µM | [3] > 100 µM | [4] > 100 µM | [15] > 100 µM | [5] > 100 µM | [7] > 100 µM | [8] > 100 µM | [9] > 100 µM | [10] > 100 µM | [11] > 100 µM | [12] > 100 µM | [17] > 100 µM | [18] > 100 µM | [19] 58.5 µM | [13] > 100 µM | [20] > 100 µM | [16] > 100 µM

Source: ChEMBL document CHEMBL1201862, “PubChem BioAssay data set” (2004)
